Data: article PMC5030359, “Cathelicidin Antimicrobial Peptides with Reduced Activation of Toll-Like Receptor Signaling Have Potent Bactericidal Activity against Colistin-Resistant Bacteria” (mBio, 2016)
In brackets after ≈: the same amount, converted by molar mass. Read-outs that look alike come from different tables or passages of the source. Peptide text beside a SMILES is read from it.

Tests used:
TLR4 = TLR4 signaling: IL-6 ELISA in BEAS-2B cells treated with LPS; type: cell-based, human; conditions: for % IL-6 produced compared to controls (SD) TLR4: BEAS-2B cells, LPS 0.5 µg/ml, peptide 2 µM, ELISA, control cells = 100%, mean (SD) of minimum three assays
Text: (§1) FIG 1 Cathelicidins from animals have distinct abilities to act on Toll-like receptor signaling. (A) A phylogenetic relationship of cathelicidins from mammals. The figure is derived from results of Zanetti et al. (12). (B) Names, lengths, and sequences of cathelicidin peptides and their ability to affect Toll-like receptor signaling. The peptide lengths are shown in the numbers of amino acids (AAs). The residues predicted to form an α-helix are underlined with an arrow. The basic, acidic, and aromatic residues are colored blue, red, and green, respectively. TLR signaling was assessed by the amount of IL-6 cytokine produced in BEAS-2B cells. IL-6 levels were quantified using enzyme-linked immunosorbent assay (ELISA), and the level of IL-6 in the control cells is normalized to 100%. The peptides were added to the cells at a final concentration of 2 μM. Each result is the mean of a minimum of three independent assays, and the standard deviations (SD) are shown in parentheses.
LL-37 at 2 µM final concentration reduced IL-6 production to approximately half that of the untreated cells (Fig. 1B).
(§2) The concentration of IL-6 secreted into the cell medium was quantified using the OptEIA kit (BD Biosciences, San Jose, CA). A typical assay used 1 × 10^4 BEAS-2B cells/well grown for 24 h in flat-bottom 96-well plates. Poly(I⋅C) was added to a final concentration of 0.13 µg/ml for 24 h. ODN2006 was added to 0.5 nM. Lipopolysaccharides were used at 0.5 µg/ml. All data shown are the means and ranges of 1 standard error for a minimum of three independent samples. Data sets were compared using the Student t test calculated with GraphPad Prism 5 software.

TLR9 = TLR9 signaling: IL-6 ELISA in BEAS-2B cells treated with CpG DNA ODN2006; type: cell-based, human; conditions: ODN2006 0.5 nM, peptide 2 µM, control cells = 100%, mean (SD) of minimum three assays
Protocol: (§3) Eight cathelicidins produced by eight mammals were selected for an initial examination (Fig. 1A). […] However, the number of charged residues and the lengths of the disordered residues differed (Fig. 1B). The peptides were added to BEAS-2B cells, a human lung epithelial cell line that expresses multiple TLRs and can release proinflammatory cytokines in response to their activation and the enhancement of cytokine release by LL-37 ([15]). BEAS-2B cells treated with the TLR3 agonist poly(I⋅C) and 2 µM LL-37 increased interleukin 6 (IL-6) production by threefold. All of the nonhuman cathelicidins tested had lower TLR3 signaling compared to LL-37 (Fig. 1B). The lack of TLR3 signaling by the nonhuman cathelicidins was due to the inability to use the formyl peptide receptor-like receptor 1 to endocytose the double-stranded RNA (dsRNA)−LL-37 complex and deliver the poly(I⋅C) to TLR3 in endosomes ([17]) (see Fig. S1 in the supplemental material). All of the nonhuman cathelicidins also had reduced activation of TLR9 compared to LL-37 (Fig. 1B).
as §1, §2

TLR3 = TLR3 signaling: IL-6 ELISA in BEAS-2B cells treated with poly(I·C); type: cell-based, human; conditions: for % IL-6 produced compared to controls (SD) TLR3: poly(I·C) […], peptide 2 µM, ELISA, control cells = 100%, mean (SD) of minimum three assays
Protocol: as §3, §1, §2

[1] = strains with MIC of 16 µg/ml or less / strains tested
[2] = broth microdilution, CAMHB, at least three independent assays

Protocol for 19 Gram-negative strains: (A) Sequences of the cathelicidins, the numbers of bacterial strains killed, and hRBC lysis by the cathelicidins. […] The bacterial species tested are Klebsiella pneumoniae (K. p.), Serratia marcescens (S. m.), Enterobacter cloacae (E. cl.), Escherichia coli (E. c.), and Pseudomonas aeruginosa (P. a.). MICs were determined by the microdilution assay. […] The results are the median values of at least three independent assays.
We tested a panel of cathelicidins for inhibiting growth of 19 Gram-negative strains from the family Enterobacteriaceae and the nonfermentative bacteria. The species tested were Enterobacter cloacae ([2]), Escherichia coli ([5]), Klebsiella pneumoniae ([4]), Pseudomonas aeruginosa ([4]), and Serratia marcescens ([4]). All of the strains selected have been characterized for their antibiotic resistance profiles.
(§4) Antimicrobial activity was determined using the broth microdilution method based on the guidelines of the Clinical and Laboratory Standards Institute (CLSI) ([39]), using cation-adjusted Mueller-Hinton broth (CAMHB) as the testing medium. Reference Gram-positive and Gram-negative bacteria were tested, including both enteric and Pseudomonas aeruginosa strains. Each MIC was determined in at least three independent assays.
Protocol for Enterobacter cloacae: (§5) The bacterial species tested are Klebsiella pneumoniae (K. p.), Serratia marcescens (S. m.), Enterobacter cloacae (E. cl.), Escherichia coli (E. c.), and Pseudomonas aeruginosa (P. a.). MICs were determined by the microdilution assay. […] The results are the median values of at least three independent assays.
as §4
Protocol for Escherichia coli: as §5, §4
Protocol for Klebsiella pneumoniae: as §5, §4
Protocol for Pseudomonas aeruginosa: as §5, §4
Protocol for Serratia marcescens: as §5, §4

With `CC[C@H](C)[C@H](NC(=O)[C@H](CCCCN)NC(=O)[C@H](CCC(=O)O)NC(=O)[C@H](CCCCN)NC(=O)[C@@H](NC(=O)[C@H](CCCCN)NC(=O)[C@H](CCCNC(=N)N)NC(=O)[C@H](Cc1ccccc1)NC(=O)[C@H](Cc1ccccc1)NC(=O)[C@H](CC(N)=O)NC(=O)CNC(=O)[C@H](CC(C)C)NC(=O)[C@@H](N)CCCNC(=N)N)C(C)C)C(=O)NCC(=O)NCC(=O)NCC(=O)N[C@@H](CC(C)C)C(=O)N[C@@H](CCCCN)C(=O)N[C@@H](CCCCN)C(=O)N[C@H](C(=O)NCC(=O)N[C@@H](CCC(N)=O)C(=O)N[C@@H](CCCCN)C(=O)N[C@H](C(=O)N[C@@H](CCCCN)C(=O)N[C@@H](CC(=O)O)C(=O)N[C@@H](Cc1ccccc1)C(=O)N[C@@H](CC(C)C)C(=O)NCC(=O)N[C@@H](CC(N)=O)C(=O)N[C@@H](CC(C)C)C(=O)N[C@H](C(=O)N1CCC[C@H]1C(=O)N[C@@H](CCCNC(=N)N)C(=O)N[C@H](C(=O)N[C@@H](C)C(=O)N[C@@H](CO)C(=O)O)[C@@H](C)O)C(C)C)[C@@H](C)CC)C(C)C` [RL-37] (H-RLGNFFRKVKEKIGGGLKKVGQKIKDFLGNLVPRTAS-OH; N-terminus and C-terminus assumed) the “# strains inhibited at 16 µg/ml peptide E. cl.” value (Enterobacter cloacae; [1]) was 1/2, the “# strains inhibited at 16 µg/ml peptide K. p.” value (Klebsiella pneumoniae; [1]) was 3/4 and the “No. of strains inhibited at 16 µg/ml/total no. of strains” value (19 Gram-negative strains) was 7/19. For the same molecule, the “# strains inhibited at 16 µg/ml peptide E. c.” value (Escherichia coli) was 2/6, the “% IL-6 produced compared to controls (SD) TLR4” value (TLR4) was 50(5) % and the “# strains inhibited at 16 µg/ml peptide S. m.” value (Serratia marcescens; [1]) was 0/3. The “# strains inhibited at 16 µg/ml peptide P. a.” value (Pseudomonas aeruginosa) was 1/4, the “% IL-6 produced compared to controls (SD) TLR9” value (TLR9) was 93(19) % and the “% IL-6 produced compared to controls (SD) TLR3” value (TLR3) was 102(18) %.
With `CC[C@H](C)[C@H](NC(=O)[C@H](CCCCN)NC(=O)[C@H](CCC(=O)O)NC(=O)[C@H](CCCCN)NC(=O)[C@H](CO)NC(=O)[C@H](CCCCN)NC(=O)[C@H](CCCNC(=N)N)NC(=O)[C@H](Cc1ccccc1)NC(=O)[C@H](Cc1ccccc1)NC(=O)[C@H](CC(=O)O)NC(=O)CNC(=O)[C@H](CC(C)C)NC(=O)[C@@H](N)CC(C)C)C(=O)NCC(=O)N[C@@H](CCCCN)C(=O)N[C@@H](CCC(=O)O)C(=O)N[C@@H](Cc1ccccc1)C(=O)N[C@@H](CCCCN)C(=O)N[C@@H](CCCNC(=N)N)C(=O)N[C@H](C(=O)N[C@H](C(=O)N[C@@H](CCC(N)=O)C(=O)N[C@@H](CCCNC(=N)N)C(=O)N[C@H](C(=O)N[C@@H](CCCCN)C(=O)N[C@@H](CC(=O)O)C(=O)N[C@@H](Cc1ccccc1)C(=O)N[C@@H](CC(C)C)C(=O)N[C@@H](CCCNC(=N)N)C(=O)N[C@@H](CC(N)=O)C(=O)N[C@@H](CC(C)C)C(=O)N[C@H](C(=O)N1CCC[C@H]1C(=O)N[C@@H](CCCNC(=N)N)C(=O)N[C@H](C(=O)N[C@@H](CCC(=O)O)C(=O)N[C@@H](CO)C(=O)O)[C@@H](C)O)C(C)C)[C@@H](C)CC)C(C)C)[C@@H](C)CC` [LL-37] the “# strains inhibited at 16 µg/ml peptide E. cl.” value (Enterobacter cloacae) was 0/2, the “MIC E. cloacae 4080” value (Enterobacter cloacae; [2]) was 32 µg/mL (≈ 7.12 µM) and the “MIC E. cloacae 4092” value (Enterobacter cloacae; [2]) was greater than 32 µg/mL. The “# strains inhibited at 16 µg/ml peptide K. p.” value (Klebsiella pneumoniae) was 0/4, the “MIC K. pneumoniae 4110” value (Klebsiella pneumoniae; [2]) was greater than 32 µg/mL and the “MIC K. pneumoniae ATCC 700603” value (Klebsiella pneumoniae; [2]) was greater than 32 µg/mL. The “MIC K. pneumoniae C2” value (Klebsiella pneumoniae; [2]) was greater than 32 µg/mL, the “MIC K. pneumoniae OC8893” value (Klebsiella pneumoniae; [2]) was greater than 32 µg/mL and the “No. of strains inhibited at 16 µg/ml/total no. of strains” value (19 Gram-negative strains) was 0/19. For the same molecule, the “MIC for any/all of the 19 bacterial strains” value (19 Gram-negative strains; statement over all 19 Gram-negative strains) was “at least 32 µg/ml”, the “# strains inhibited at 16 µg/ml peptide E. c.” value (Escherichia coli) was 0/6 and the “MIC E. coli ATCC 25922” value (Escherichia coli; [2]) was 32 µg/mL (≈ 7.12 µM). For the same molecule, the “MIC E. coli ATCC 35218” value (Escherichia coli; [2]) was 32 µg/mL (≈ 7.12 µM), the “MIC E. coli IU0342” value (Escherichia coli; [2]) was 32 µg/mL (≈ 7.12 µM) and the “MIC E. coli J53 AzideR” value (Escherichia coli; [2]) was greater than 32 µg/mL. The “MIC E. coli MC4100” value (Escherichia coli; [2]) was greater than 32 µg/mL, the “% IL-6 produced compared to controls (SD) TLR4” value (TLR4) was 55(3) % and the “IL-6 production relative to untreated cells” value (TLR4; LPS-induced TLR4 signaling, 2 µM peptide) was “approximately half”. The “# strains inhibited at 16 µg/ml peptide S. m.” value (Serratia marcescens) was 0/3, the “MIC S. marcescens 4075” value (Serratia marcescens; [2]) was greater than 32 µg/mL and the “MIC S. marcescens 4101” value (Serratia marcescens; [2]) was greater than 32 µg/mL. The “MIC S. marcescens 4104” value (Serratia marcescens; [2]) was greater than 32 µg/mL, the “MIC S. marcescens 7553” value (Serratia marcescens; [2]) was greater than 32 µg/mL and the “# strains inhibited at 16 µg/ml peptide P. a.” value (Pseudomonas aeruginosa) was 0/4. The “MIC P. aeruginosa 4083” value (Pseudomonas aeruginosa; [2]) was 32 µg/mL (≈ 7.12 µM), the “MIC P. aeruginosa ATCC 27853” value (Pseudomonas aeruginosa; [2]) was greater than 32 µg/mL and the “MIC P. aeruginosa PAO1” value (Pseudomonas aeruginosa; [2]) was 32 µg/mL (≈ 7.12 µM). The “MIC P. aeruginosa PAO1 ΔOprD” value (Pseudomonas aeruginosa; [2]) was 32 µg/mL (≈ 7.12 µM), the “% IL-6 produced compared to controls (SD) TLR9” value (TLR9) was 175(15) % and the “% IL-6 produced compared to controls (SD) TLR3” value (TLR3) was 389(16) %. The “increase of IL-6 production” value (TLR3; poly(I·C), 2 µM peptide) was “threefold”.
